According to patent publication US5876948A (priority 1991, dated 1999):
Peptide text beside a SMILES is read from it.

Columns and labels:
[1] = test system: hippocampal neurons; assay type: cell-based, rat
[2] = test system: hippocampal neurons; assay type: cell-based, rat; remark: listed apart in the source
[3] = test system: hippocampal neurons; assay type: cell-based, rat; remark: listed apart in the source
[4] = test system: hippocampal neurons; assay type: cell-based, rat; remark: listed apart in the source
[5] = in vivo; cited from earlier work
[6] = test system: primary hippocampal neurons; assay: Block of β1-40 neuronal toxicity by Substance P and analogs (therapeutic efficacy); assay type: cell-based, rat

## CC[C@H](C)[C@H](NC(=O)[C@H](Cc1ccccc1)NC(=O)[C@H](C)NC(=O)[C@H](CC(=O)O)NC(=O)[C@H](CCCCN)NC(=O)[C@H](CO)NC(=O)[C@@H]1CCCN1C(=O)[C@@H]1CCC(=O)N1)C(=O)NCC(=O)N[C@@H](CC(C)C)C(=O)N[C@@H](CCSC)C(N)=O [Eledoisin] (HELM PEPTIDE1{[Glp].P.S.K.D.A.F.I.G.L.M.[am]}$$$$V2.0)
[1]
  % Trophic Response: 0 ± 11
  neurotrophic activity / early neuronal survival (in words): no effect on early or late neuronal survival
[2]
  % Toxic Response: 0 ± 6
  neurotoxic activity / late neuronal survival (in words): no effect on early or late neuronal survival
[3]
  reversal of early trophic response to β1-40: did not show significant effects
[4]
  reversal of late toxic response to β1-40: did not show significant effects

## CSCC[C@H](NC(=O)[C@H](CC(C)C)NC(=O)CNC(=O)[C@H](Cc1ccc(O)cc1)NC(=O)[C@H](Cc1ccccc1)NC(=O)[C@H](CCCCN)NC(=O)[C@H](CC(N)=O)NC(=O)[C@@H]1CCCN1C(=O)[C@H](CC(=O)O)NC(=O)[C@H](C)NC(=O)[C@@H]1CCC(=O)N1)C(N)=O [Physalaemin] (HELM PEPTIDE1{[Glp].A.D.P.N.K.F.Y.G.L.M.[am]}$$$$V2.0)
[1]
  % Trophic Response: 0 ± 4%
  neurotrophic activity / early neuronal survival (in words): no effect on early or late neuronal survival
[2]
  % Toxic Response: 0 ± 7%
  neurotoxic activity / late neuronal survival (in words): no effect on early or late neuronal survival
[3]
  reversal of early trophic response to β1-40: almost completely reversed
[4]
  reversal of late toxic response to β1-40: almost completely reversed

## CSCC[C@H](NC(=O)[C@H](CC(C)C)NC(=O)CNC(=O)[C@H](Cc1ccccc1)NC(=O)[C@H](Cc1ccccc1)NC(=O)[C@H](CCC(N)=O)NC(=O)[C@H](CCC(N)=O)NC(=O)[C@@H]1CCCN1C(=O)[C@H](CCCCN)NC(=O)[C@@H]1CCCN1C(=O)[C@@H](N)CCCN=C(N)N)C(N)=O [Substance P]
[5]
  crossing of the blood-brain barrier: known to cross the blood-brain barrier

## CSCC[C@H](NC(=O)[C@H](CC(C)C)NC(=O)CNC(=O)[C@H](Cc1ccccc1)N(C)C(=O)[C@H](Cc1ccccc1)NC(=O)[C@H](CC(=O)O)NC(=O)CCC(=O)O)C(N)=O [[Succinyl-Asp^6, Me-Phe^8]-Sub P (6-11)] (HELM PEPTIDE1{[O=C(O)CCC(=O)[*:2]].D.F.[meF].G.L.M.[am]}$$$$V2.0)
[6]
  Therapeutic Efficacy (%): ability to block neuronal toxicity of β1-40: 47%

## CSCC[C@H](NC(=O)[C@H](CC(C)C)NC(=O)CNC(=O)[C@@H](NC(=O)[C@H](Cc1ccccc1)NC(=O)[C@H](CCC(N)=O)NC(=O)[C@H](CC(=O)O)NC(=O)[C@H](CO)NC(=O)[C@H](CCCCN)NC(=O)[C@@H]1CCCN1C(=O)[C@@H](NC(=O)[C@@H](N)CC(=O)O)C(C)C)C(C)C)C(N)=O [kassinin] (H-DVPKSDQFVGLM-NH2)
[3]
  reversal of early trophic response to β1-40: did not show significant effects
[4]
  reversal of late toxic response to β1-40: did not show significant effects

## CC(C)C[C@H](NC(=O)[C@H](CC(C)C)NC(=O)[C@@H](Cc1c[nH]c2ccccc12)NC(=O)[C@H](Cc1ccccc1)NC(=O)[C@@H](Cc1c[nH]c2ccccc12)NC(=O)[C@H](CCC(N)=O)NC(=O)[C@H](CCC(N)=O)NC(=O)[C@@H]1CCCN1C(=O)[C@H](CCCCN)NC(=O)[C@@H]1CCCN1C(=O)[C@H](N)CCCNC(=N)N)C(N)=O [spantide, [D-Arg^1, D-Trp^7,9, Leu^11]-substance P] (HELM PEPTIDE1{[dR].P.K.P.Q.Q.[dW].F.[dW].L.L.[am]}$$$$V2.0)
[1]
  % Trophic Response: 120 ± 8%
  neurotrophic activity / early neuronal survival (in words): significant early neurotrophic and late neurotoxic effects
[2]
  % Toxic Response: 118 ± 10%
  neurotoxic activity / late neuronal survival (in words): significant early neurotrophic and late neurotoxic effects

## Sub P, Free Acid
[6]
  Therapeutic Efficacy (%): ability to block neuronal toxicity of β1-40: 53%

## Sub P, Methyl Ester
[6]
  Therapeutic Efficacy (%): ability to block neuronal toxicity of β1-40: 71%
